Results on 9 compounds are retold here after US20070149535A1, “Protein kinase inhibitors” (ONCALIS AG, priority 2004, published 2007).

Each structure is given as a SMILES string.

Holding throughout (test): Yeast growth assay, specificity profiling
Type in all cases: cell-based

One experiment concerns the target T1, EphB2 (Homo sapiens, UniProt P29323).
T1 construct: expressed in transfected cells; host or cells: yeast
T1 sequence (P29323 19-1055): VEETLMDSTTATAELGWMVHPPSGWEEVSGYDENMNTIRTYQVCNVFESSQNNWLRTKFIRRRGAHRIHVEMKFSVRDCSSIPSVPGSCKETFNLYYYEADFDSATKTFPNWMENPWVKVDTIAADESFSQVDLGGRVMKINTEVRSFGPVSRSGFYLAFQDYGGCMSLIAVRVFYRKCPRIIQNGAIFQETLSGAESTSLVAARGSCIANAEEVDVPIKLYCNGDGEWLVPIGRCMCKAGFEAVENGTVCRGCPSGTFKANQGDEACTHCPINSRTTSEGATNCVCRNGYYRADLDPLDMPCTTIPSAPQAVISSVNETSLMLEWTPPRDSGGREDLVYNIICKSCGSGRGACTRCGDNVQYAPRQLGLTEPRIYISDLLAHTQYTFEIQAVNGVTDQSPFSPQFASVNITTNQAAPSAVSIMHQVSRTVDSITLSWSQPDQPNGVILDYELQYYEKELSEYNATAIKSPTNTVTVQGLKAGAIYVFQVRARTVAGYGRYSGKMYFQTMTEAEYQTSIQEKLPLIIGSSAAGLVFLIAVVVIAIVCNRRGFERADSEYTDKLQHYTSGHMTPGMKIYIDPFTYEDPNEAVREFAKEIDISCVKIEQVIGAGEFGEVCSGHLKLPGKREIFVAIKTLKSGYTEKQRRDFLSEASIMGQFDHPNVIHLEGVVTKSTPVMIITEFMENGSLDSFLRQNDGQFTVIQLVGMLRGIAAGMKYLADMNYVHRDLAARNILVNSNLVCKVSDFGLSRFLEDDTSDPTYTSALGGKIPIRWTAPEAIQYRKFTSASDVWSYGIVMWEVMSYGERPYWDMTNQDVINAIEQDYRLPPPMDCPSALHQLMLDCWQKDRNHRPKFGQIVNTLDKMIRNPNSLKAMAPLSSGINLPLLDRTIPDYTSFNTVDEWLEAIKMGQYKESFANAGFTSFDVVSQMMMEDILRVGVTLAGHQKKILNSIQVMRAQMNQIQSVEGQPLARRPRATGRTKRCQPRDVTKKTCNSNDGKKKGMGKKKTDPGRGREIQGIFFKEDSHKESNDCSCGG
More on the design: key: “−” indicates no growth restoration i.e. no activity against the particular kinase; “+”, “++”, and “+++” indicate activity detected by restoration of growth, classified into three categories of potency; “+”, “++”, and “+++” indicate activity detected by restoration of growth, classified into three categories of potency; “+”, “++”, and “+++” indicate activity detected by restoration of growth, classified into three categories of potency. Particulars: 7 concentrations between 0.2 and 100 μM. The method, boiled down:
(§1)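 Yeast positive-selection assay: RTK plasmid expression switched on by galactose suppresses growth; kinase inhibitors restore it. Potency classes derive from peak growth rescue and its concentration across a 0.2–100 μM, 7-point series.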

The next experiment has as its target T2, RET (Homo sapiens, UniProt P07949).
T2 construct: expressed in transfected cells; host or cells: yeast
More on the design: key: “−” indicates no growth restoration i.e. no activity against the particular kinase; “+”, “++”, and “+++” indicate activity detected by restoration of growth, classified into three categories of potency; “+”, “++”, and “+++” indicate activity detected by restoration of growth, classified into three categories of potency; “+”, “++”, and “+++” indicate activity detected by restoration of growth, classified into three categories of potency. Particulars: 7 concentrations between 0.2 and 100 μM. The method, boiled down:
as §1

The target in another experiment is T3, InsR (Homo sapiens, UniProt P06213).
T3 construct: expressed in transfected cells; host or cells: yeast
T3 sequence (P06213 28-1382): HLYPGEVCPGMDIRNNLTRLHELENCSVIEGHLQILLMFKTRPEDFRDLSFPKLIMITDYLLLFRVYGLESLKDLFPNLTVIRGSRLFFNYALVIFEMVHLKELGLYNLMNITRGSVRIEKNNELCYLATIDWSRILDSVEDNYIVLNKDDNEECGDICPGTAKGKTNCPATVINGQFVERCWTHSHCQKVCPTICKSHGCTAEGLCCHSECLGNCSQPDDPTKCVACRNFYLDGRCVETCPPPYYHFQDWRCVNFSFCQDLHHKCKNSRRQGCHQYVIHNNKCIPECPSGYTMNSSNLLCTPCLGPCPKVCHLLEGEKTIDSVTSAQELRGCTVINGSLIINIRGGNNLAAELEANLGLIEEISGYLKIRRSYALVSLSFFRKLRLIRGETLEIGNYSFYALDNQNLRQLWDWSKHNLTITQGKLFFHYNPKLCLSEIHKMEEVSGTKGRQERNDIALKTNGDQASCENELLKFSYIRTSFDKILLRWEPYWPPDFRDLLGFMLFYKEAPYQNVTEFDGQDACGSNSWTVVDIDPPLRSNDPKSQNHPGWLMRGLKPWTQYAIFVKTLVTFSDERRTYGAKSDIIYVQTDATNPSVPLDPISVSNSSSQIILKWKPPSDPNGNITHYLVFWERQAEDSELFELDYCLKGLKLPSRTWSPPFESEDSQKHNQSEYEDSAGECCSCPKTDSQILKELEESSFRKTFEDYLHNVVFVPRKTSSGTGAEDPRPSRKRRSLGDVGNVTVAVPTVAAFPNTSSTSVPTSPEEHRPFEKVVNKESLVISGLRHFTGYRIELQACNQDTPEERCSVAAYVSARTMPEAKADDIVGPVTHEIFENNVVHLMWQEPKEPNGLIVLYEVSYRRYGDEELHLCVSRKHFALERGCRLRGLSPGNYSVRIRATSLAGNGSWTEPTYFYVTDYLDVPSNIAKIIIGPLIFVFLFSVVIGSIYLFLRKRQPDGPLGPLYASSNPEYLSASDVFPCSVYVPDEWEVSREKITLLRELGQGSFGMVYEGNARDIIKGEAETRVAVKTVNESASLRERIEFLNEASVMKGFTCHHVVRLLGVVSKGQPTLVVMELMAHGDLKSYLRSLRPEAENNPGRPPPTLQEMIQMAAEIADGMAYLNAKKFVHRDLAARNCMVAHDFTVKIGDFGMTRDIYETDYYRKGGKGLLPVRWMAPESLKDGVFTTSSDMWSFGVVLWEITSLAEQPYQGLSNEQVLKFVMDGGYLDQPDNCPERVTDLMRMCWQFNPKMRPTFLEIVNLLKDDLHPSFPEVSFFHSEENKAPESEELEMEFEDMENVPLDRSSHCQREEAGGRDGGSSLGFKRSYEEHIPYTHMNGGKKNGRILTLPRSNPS
More on the design: key: “−” indicates no growth restoration i.e. no activity against the particular kinase; “+”, “++”, and “+++” indicate activity detected by restoration of growth, classified into three categories of potency; “+”, “++”, and “+++” indicate activity detected by restoration of growth, classified into three categories of potency; “+”, “++”, and “+++” indicate activity detected by restoration of growth, classified into three categories of potency. To be noted: 7 concentrations between 0.2 and 100 μM. The gist of the method: as §1

The target of the next experiment is T4, EGFR (L858R) (Homo sapiens, UniProt P00533, L858R).
T4 construct: expressed in transfected cells; host or cells: yeast
More on the design: key: (+) in a different yeast background. To be noted: in a different yeast background. As to the method: Specificity Profiling: Yeast Growth Assay
The yeast growth assay was performed as described in “Method for the identification and/or validation of receptor tyrosine kinase inhibitors” PCT/CH03/00694 (2004/10/24), section “Modes for Carrying out the Invention, Experiment 1 and Experiment 2.
Briefly, yeast cells carrying plasmids with the RTK of interest were grown in glucose containing medium (repressing expression). The cultures were diluted into galactose containing medium, which induces the expression of the kinase. Expression of the kinase inhibits growth of the yeast cells, which allows for positive selection of kinase inhibitors restoring growth of cells. Compounds were titrated at 7 concentrations between 0.2 and 100 μM.
Specificity profiling of compounds, using the yeast growth assay method described above. “−” indicates no growth restoration i.e. no activity against the particular kinase, “+”, “++”, and “+++” indicate activity detected by restoration of growth, classified into three categories of potency according to the maximal level of growth restoration reached and the concentration at which the maximal growth restoration is reached.
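Wherever EGFR (L858R) growth restoration is given: Parenthesized + marks a result obtained in a different yeast background.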

T2 sequence (P07949 29-1114): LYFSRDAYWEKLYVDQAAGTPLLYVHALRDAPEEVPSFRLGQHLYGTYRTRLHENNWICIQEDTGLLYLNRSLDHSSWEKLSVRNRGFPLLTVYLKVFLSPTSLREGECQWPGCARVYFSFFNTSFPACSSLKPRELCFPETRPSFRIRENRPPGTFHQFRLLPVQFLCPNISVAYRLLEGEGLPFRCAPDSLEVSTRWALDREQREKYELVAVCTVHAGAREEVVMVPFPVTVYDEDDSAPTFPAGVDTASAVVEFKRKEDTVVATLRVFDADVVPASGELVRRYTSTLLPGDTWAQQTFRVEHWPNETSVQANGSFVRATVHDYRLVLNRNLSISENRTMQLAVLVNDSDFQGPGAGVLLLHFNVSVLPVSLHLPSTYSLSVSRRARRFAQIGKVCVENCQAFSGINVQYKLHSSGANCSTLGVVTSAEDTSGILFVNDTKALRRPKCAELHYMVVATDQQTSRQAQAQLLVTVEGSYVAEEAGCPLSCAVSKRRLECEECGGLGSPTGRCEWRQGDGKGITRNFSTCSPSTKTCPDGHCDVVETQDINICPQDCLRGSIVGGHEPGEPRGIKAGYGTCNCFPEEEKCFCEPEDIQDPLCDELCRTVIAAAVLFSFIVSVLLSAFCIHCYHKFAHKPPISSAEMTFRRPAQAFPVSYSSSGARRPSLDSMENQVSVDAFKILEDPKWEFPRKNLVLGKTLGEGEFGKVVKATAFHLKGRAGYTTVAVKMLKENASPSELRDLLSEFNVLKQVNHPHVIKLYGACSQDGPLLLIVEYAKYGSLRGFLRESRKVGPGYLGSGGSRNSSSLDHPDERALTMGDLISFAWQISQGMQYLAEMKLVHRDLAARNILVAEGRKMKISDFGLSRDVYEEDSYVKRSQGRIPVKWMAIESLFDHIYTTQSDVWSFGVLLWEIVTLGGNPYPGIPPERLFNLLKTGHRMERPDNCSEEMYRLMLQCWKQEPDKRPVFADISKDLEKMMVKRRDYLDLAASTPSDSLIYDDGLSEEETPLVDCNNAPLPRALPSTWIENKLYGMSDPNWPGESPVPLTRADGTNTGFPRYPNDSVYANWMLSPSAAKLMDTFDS

With `CC(=O)Nc1ccc(-c2nc3cnccn3c2Nc2cccc(Cl)c2)cc1` [compound 8, N-{4-[3-(3-Chloro-phenylamino)-imidazo[1,2-a]pyrazin-2-yl]-phenyl}-acetamide], the EphB2 growth restoration result on EphB2 was “++”. The RET growth restoration result on RET is recorded as “−”. For the same compound, the InsR growth restoration result at InsR is on record as “−”. The “EGFR (L858R) growth restoration” value on EGFR (L858R) is “(+)”.

On to `Nc1ccc(-c2nc3cnccn3c2Nc2cccc(Cl)c2)cc1` [compound 10, [2-(4-Amino-phenyl)-imidazo[1,2-a]pyrazin-3-yl]-(3-chloro-phenyl)-amine], for which, on EphB2, the EphB2 growth restoration entry is on record as “++”. Besides, the RET growth restoration entry at RET is reported as “−”. Also, the InsR growth restoration entry on InsR was “−”. In addition, the “EGFR (L858R) growth restoration” value at EGFR (L858R) was “(+)”.

Regarding `CC(C)c1nc2cnccn2c1Nc1cccc(Cl)c1` [compound 12, (3-Chloro-phenyl)-(2-isopropyl-imidazo[1,2-a]pyrazin-3-yl)-amine], the EphB2 growth restoration entry at EphB2 is on record as “+”. In addition, the RET growth restoration entry on RET is “−”. Further, the InsR growth restoration result at InsR is recorded as “−”. Besides, the “EGFR (L858R) growth restoration” value on EGFR (L858R) was “(+)”.

Consider `Fc1cccc(Nc2c(-c3ccccc3)nc3cnccn23)c1` [compound 26, (3-Fluoro-phenyl)-(2-phenyl-imidazo[1,2-a]pyrazin-3-yl)-amine], for which the EphB2 growth restoration result on EphB2 was “+”. Also, the RET growth restoration entry at RET was “−”. Besides, at InsR, the InsR growth restoration entry is given as “−”. In addition, the “EGFR (L858R) growth restoration” value at EGFR (L858R) is listed as “(+)”.

Turning to `Fc1ccc(Nc2c(-c3ccccc3)nc3cnccn23)cc1F` [compound 30, (3,4-Difluoro-phenyl)-(2-phenyl-imidazo[1,2-a]pyrazin-3-yl)-amine], the EphB2 growth restoration result on EphB2 was “+”. The RET growth restoration result at RET is listed as “−”. In addition, on InsR, the InsR growth restoration entry is on record as “−”. Further, the “EGFR (L858R) growth restoration” value at EGFR (L858R) was “(+)”.

On to `CC(=O)Nc1ccc(-c2nc3c(C)nccn3c2Nc2cccc(Cl)c2)cc1` [compound 33, N-{4-[3-(3-Chloro-phenylamino)-8-methyl-imidazo[1,2-a]pyrazin-2-yl]-phenyl}-acetamide], for which the EphB2 growth restoration result at EphB2 is on record as “+++”. At RET, the RET growth restoration entry was “−”. Moreover, the InsR growth restoration result at InsR is on record as “−”. At EGFR (L858R), the “EGFR (L858R) growth restoration” value is on record as “(+)”.

Turning to `c1ccc(Nc2c(-c3ccc(N4CCOCC4)cc3)nc3cnccn23)cc1` [compound 38, [2-(4-Morpholin-4-yl-phenyl)-imidazo[1,2-a]pyrazin-3-yl]-phenyl-amine], the EphB2 growth restoration entry on EphB2 is “++”. For the same compound, the RET growth restoration result at RET is reported as “−”. The InsR growth restoration entry on InsR is reported as “+”. Further, the “EGFR (L858R) growth restoration” value at EGFR (L858R) is “(+)”.

Consider `COc1cccc(-c2nc3c(C)nccn3c2Nc2cccc(C)c2)c1` [compound 42, [2-(3-Methoxy-phenyl)-8-methyl-imidazo[1,2-a]pyrazin-3-yl]-m-tolyl-amine], for which the EphB2 growth restoration entry at EphB2 was “+++”. Besides, the RET growth restoration entry on RET is “−”. Also, the InsR growth restoration result at InsR is listed as “−”. The “EGFR (L858R) growth restoration” value on EGFR (L858R) is “(+)”.

Regarding `COc1cccc(-c2nc3c(C)nccn3c2Nc2cccc(Cl)c2)c1` [compound 48, (3-Chloro-phenyl)-[2-(3-methoxy-phenyl)-8-methyl-imidazo[1,2-a]pyrazin-3-yl]-amine], the EphB2 growth restoration entry at EphB2 was “+++”. Further, on RET, the RET growth restoration entry is on record as “−”. In addition, the InsR growth restoration entry at InsR is recorded as “−”. For the same compound, on EGFR (L858R), the “EGFR (L858R) growth restoration” value is listed as “(+)”.
